Test results from patent US7323436B2, “Adduct having an acidic solution of sparingly-soluble group IIA complexes” (priority 1999, dated 2008).

Assay: Contact with human skin and nose
Format: in vivo
Conditions: pH of less than 0.5
Text: As discussed above, AGIIS has relatively less dehydrating properties (such as charring sucrose) as compared to the saturated solution of CaSO4 in the same concentration of H2SO4. […] AGIIS is non-volatile at room temperature.

## O=S(=O)(O)O [sulfuric acid]
  irritation of a hand put into the solution: an irritation would occur within a relatively short span of time
